Laboratory results: US12115178B2, “Acylated active agents and methods of their use for the treatment of autoimmune disorders” (Flagship Pioneering Innovations V, Inc., priority 2018, dated 2024)

Legend:
Format in all cases: in vitro ADME
[1] = Assay 2. Stability in Simulated Intestinal Fluid (SIF); conditions: SIF pH 6.7 with pancreatin, 1 μM, 37° C.
Outline: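 Compounds at 1 µM (from 1 mM DMSO stock) were incubated at 37 °C with agitation in simulated intestinal fluid: FaSSIF in pH 6.7 phosphate buffer with pancreatin. Aliquots taken from T0 onward were quenched with acetonitrile and analyzed by LC/MS for degradation rate.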

[2] = Assay 3. In vitro Colonic Material Stability Assay; conditions: colonic material slurry, anaerobic, 1 or 10 μM
Procedure: Assay 3. In vitro Colonic Material Stability Assay. This assay was used to assess the stability of an acylated active agent in a large intestine. All experiments were performed in an anaerobic chamber containing 90% nitrogen, 5% hydrogen and 5% carbon dioxide. Colonic material was resuspended as a slurry (15% w/v final concentration) in pre-reduced, anaerobically sterilized dilution blanks (Anaerobe Systems AS-908). The colonic material was then inoculated into 96 well plates containing YCFAC media (Anaerobe Systems AS-680) or other suitable media (6.7 μL slurry into 1 mL total media). Compounds or groups of compounds were added to each individual well to reach a final analyte concentration of 1 or 10 μM, and the material was mixed by pipetting. Sample was removed after set timepoints (0, 120, 240, 480, 1440, 2880 minutes after initiation of the assay), quenched with acetonitrile containing internal standard, and analyzed by LC/MS.

[3] = Assay 1. Stability in Simulated Gastric Fluid (SGF); conditions: SGF pH 1.6 with pepsin, 1 μM, 37° C.
Outline: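 Compound at 1 μM final (from 1 mM DMSO stock) incubated at 37° C in SGF: NaCl medium at pH 1.6 with FaSSIF powder and 0.1 mg/mL pepsin, prepared fresh. Aliquots taken at T0 and regular intervals, quenched with equal volume acetonitrile; LC/MS gives degradation rate.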

Row | SMILES | Assay 2 (SIF) (% @ Remaining 4 hours) [1] | Assay 3 (% Remaining at 24 h) [2] | Assay 1 (SGF) (% Remaining @ 1 hour) [3]
1 | CCCC(=O)O[C@H]1[C@H](OC)OC[C@@H](OC(=O)CCC)[C@H]1OC(=O)CCC [Compound 50, (2R,3R,4R,5R)-3,5-bis(butanoyloxy)-2-methoxyoxan-4-yl butanoate] | A (<25% of the tested compound remaining) | A (<25% of the tested compound remaining) | C (>75% of the tested compound remaining)
2 | CCC(=O)O[C@@H]1[C@@H](OC(=O)CC)[C@H](OC(=O)/C=C/c2c[nH]c3ccccc23)OC[C@H]1OC(=O)CC [Compound 91, (2S,3R,4S,5R)-3,4,5-tris(propanoyloxy)oxan-2-yl (2E)-3-(1H-indol-3-yl)prop-2-enoate] | A (<25% of the tested compound remaining) | A (<25% of the tested compound remaining) | C (>75% of the tested compound remaining)
3 | CCCC(=O)O[C@@H]1[C@@H](OC(=O)CCC)[C@@H](Oc2ccc(N)cc2C(=O)O)OC[C@H]1OC(=O)CCC [Compound 18, 5-amino-2-[(2R,3R,4S,5R)-3,4,5-tri(butanoyloxy)tetrahydropyran-2-yl]oxy-benzoic acid] | – | C (>75% of the tested compound remaining) | C (>75% of the tested compound remaining)
4 | CCCC(=O)O[C@@H]1[C@@H](OC(=O)CCC)[C@H](OC(=O)CCc2c[nH]c3ccccc23)OC[C@H]1OC(=O)CCC [Compound 97, (2S,3R,4S,5R)-4,5-bis(butanoyloxy)-2-{[3-(1H-indol-3-yl)propanoyl]oxy}oxan-3-yl butanoate] | – | A (<25% of the tested compound remaining) | B (25-75% of the tested compound remaining)
5 | CCCC(=O)O[C@@H]1[C@@H](OC(=O)CCC)[C@H](Oc2ccc(N)cc2C(=O)O)OC[C@H]1O [Compound 32, 5-amino-2-(((2S,3R,4S,5R)-3,4-bis(butyryloxy)-5-hydroxytetrahydro-2H-pyran-2-yl)oxy)benzoic acid] | B (25-75% of the tested compound remaining) | C (>75% of the tested compound remaining) | –
6 | CCC(=O)OC[C@H]1O[C@H](OC(=O)/C=C/c2c[nH]c3ccccc23)[C@H](OC(=O)CC)[C@@H](OC(=O)CC)[C@@H]1OC(=O)CC [Compound 99, (2R,3R,4S,5R,6R)-3,4,5-tris(propanoyloxy)-6-[(propanoyloxy)methyl]oxan-2-yl (2E)-3-(1H-indol-3-yl)prop-2-enoate] | – | A (<25% of the tested compound remaining) | B (25-75% of the tested compound remaining)
7 | O=C(CCc1c[nH]c2ccccc12)O[C@H]1OC[C@@H](OC(=O)CCc2c[nH]c3ccccc23)[C@@H](OC(=O)CCc2c[nH]c3ccccc23)[C@H]1OC(=O)CCc1c[nH]c2ccccc12 [Compound 150, (2R,3R,4R,5R)-3,4,5-tris({[3-(1H-indol-3-yl)propanoyl]oxy})oxan-2-yl 3-(1H-indol-3-yl)propanoate] | A (<25% of the tested compound remaining) | A (<25% of the tested compound remaining) | –
8 | CCCC(=O)Oc1ccc(N)cc1C(=O)O [Compound 16, 5-amino-2-butanoyloxy-benzoic acid] | C (>75% of the tested compound remaining) | C (>75% of the tested compound remaining) | –
9 | CCCC(=O)O[C@@H]1[C@@H](OC(=O)CCC)[C@H](C)O[C@H](Oc2ccccc2C(=O)O)[C@@H]1OC(=O)CCC [Compound 38, 2-(((2R,3R,4R,5S,6S)-3,4,5-tris(butyryloxy)-6-methyltetrahydro-2H-pyran-2-yl)oxy)benzoic acid] | C (>75% of the tested compound remaining) | C (>75% of the tested compound remaining) | –
10 | CCCC(=O)O[C@H]1[C@H](OC(=O)CCC)[C@@H](OC(=O)CCc2c[nH]c3ccccc23)O[C@@H](C)[C@H]1OC(=O)CCC [Compound 87, (2R,3S,4R,5R,6S)-4,5-bis(butanoyloxy)-2-{[3-(1H-indol-3-yl)propanoyl]oxy}-6-methyloxan-3-yl butanoate] | – | A (<25% of the tested compound remaining) | B (25-75% of the tested compound remaining)
11 | CCC(=O)Oc1cc(OC(=O)CC)c2c(=O)c(OC(=O)CC)c(-c3ccc(OC(=O)CC)c(OC(=O)CC)c3)oc2c1 [Compound 14, [4-[4-oxo-3,5,7-tri(propanoyloxy)chromen-2-yl]-2-propanoyloxy-phenyl] propanoate] | A (<25% of the tested compound remaining) | C (>75% of the tested compound remaining) | –
12 | CCCC(=O)O[C@@H]1[C@@H](OC(=O)CCC)[C@H](OC)OC[C@H]1OC(=O)CCC [Compound 88, (2R,3R,4S,5R)-4,5-bis(butanoyloxy)-2-methoxyoxan-3-yl butanoate] | A (<25% of the tested compound remaining) | A (<25% of the tested compound remaining) | –
13 | CCCC(=O)O[C@@H]1[C@H](OC(=O)CCC)[C@H](C)OC(Oc2ccccc2C(=O)O)[C@H]1OC(=O)CCC (stereo partly drawn) [Compound 29, 2-(((3S,4R,5R,6S)-3,4,5-tris(butyryloxy)-6-methyltetrahydro-2H-pyran-2-yl)oxy)benzoic acid] | – | C (>75% of the tested compound remaining) | C (>75% of the tested compound remaining)
14 | CCCC(=O)Oc1cc(OC(=O)CCC)c2c(c1)O[C@H](c1cc(OC(=O)CCC)c(OC(=O)CCC)c(OC(=O)CCC)c1)[C@H](OC(=O)c1cc(OC(=O)CCC)c(OC(=O)CCC)c(OC(=O)CCC)c1)C2 [Compound 1, [(2R,3R)-5,7-di(butanoyloxy)-2-[3,4,5-tri(butanoyloxy)phenyl]chroman-3-yl] 3,4,5-tri(butanoyloxy)benzoate] | C (>75% of the tested compound remaining) | B (25-75% of the tested compound remaining) | –
15 | CCCC(=O)OC[C@H]1O[C@@H](Oc2ccc(N)cc2C(=O)O)[C@H](OC(=O)CCC)[C@@H](OC(=O)CCC)[C@@H]1OC(=O)CCC [Compound 36, 5-amino-2-(((2S,3R,4S,5R,6R)-3,4,5-tris(butyryloxy)-6-((butyryloxy)methyl)tetrahydro-2H-pyran-2-yl)oxy)benzoic acid] | C (>75% of the tested compound remaining) | C (>75% of the tested compound remaining) | –
16 | CCCC(=O)O[C@@H]1[C@@H](OC(=O)CCC)[C@H](Oc2ccc(N)cc2C(=O)O)OC[C@H]1OC(=O)CCC [Compound 183, 5-amino-2-[(2S,3R,4S,5R)-3,4,5-tri(butanoyloxy)tetrahydropyran-2-yl]oxy-benzoic acid] | B (25-75% of the tested compound remaining) | B (25-75% of the tested compound remaining) | –
17 | C[C@@H]1O[C@@H](OC(=O)CCc2c[nH]c3ccccc23)[C@@H](OC(=O)CCc2c[nH]c3ccccc23)[C@H](OC(=O)CCc2c[nH]c3ccccc23)[C@@H]1OC(=O)CCc1c[nH]c2ccccc12 [Compound 64, (2S,3S,4R,5R,6S)-3,4,5-tris({[3-(1H-indol-3-yl)propanoyl]oxy})-6-methyloxan-2-yl 3-(1H-indol-3-yl)propanoate] | A (<25% of the tested compound remaining) | A (<25% of the tested compound remaining) | –
18 | CCC(=O)O[C@@H]1[C@@H](OC(=O)CC)[C@H](OC(=O)/C=C/c2c[nH]c3ccccc23)OC[C@@H]1OC(=O)CC [Compound 100, (2S,3R,4S,5S)-3,4,5-tris(propanoyloxy)oxan-2-yl (2E)-3-(1H-indol-3-yl)prop-2-enoate] | – | A (<25% of the tested compound remaining) | B (25-75% of the tested compound remaining)
19 | CCCC(=O)O[C@@H]1[C@@H](OC(=O)CCC)[C@H](C)O[C@H](OC(=O)CCc2c[nH]c3ccccc23)[C@@H]1OC(=O)CCC [Compound 86, (2R,3R,4R,5S,6S)-4,5-bis(butanoyloxy)-2-{[3-(1H-indol-3-yl)propanoyl]oxy}-6-methyloxan-3-yl butanoate] | – | A (<25% of the tested compound remaining) | B (25-75% of the tested compound remaining)
20 | CCCC(=O)O[C@H]1[C@H](OC(=O)CCC)[C@H](Oc2ccccc2C(=O)O)O[C@@H](C)[C@H]1OC(=O)CCC [Compound 23, 2-(((2S,3S,4R,5R,6S)-3,4,5-tris(butyryloxy)-6-methyltetrahydro-2H-pyran-2-yl)oxy)benzoic acid] | B (25-75% of the tested compound remaining) | C (>75% of the tested compound remaining) | –
21 | CCCC(=O)OC[C@H]1O[C@H](OC)[C@H](OC(=O)CCC)[C@@H](OC(=O)CCC)[C@H]1OC(=O)CCC [Compound 56, [(2R,3S,4S,5R,6S)-3,4,5-tris(butanoyloxy)-6-methoxyoxan-2-yl]methyl butanoate] | A (<25% of the tested compound remaining) | A (<25% of the tested compound remaining) | –
